Values quoted from earlier work as cited in US20230189810A1, “AQUEOUS COMPOSITION OF DITHI[…]” (priority 2020, published 2023).

Conditions: water, 20° C.

mancozeb
solubility: about 6.2 mg per liter
